Experimental data from patent EP2842557A1, “Mildronate in ophthalmic disorders” (SIGMA-TAU Industrie Farmaceutiche Riunite S.p.A., priority 2013, dated 2015).

Legend:
Assay type in all cases: in vivo, male Wistar rats
[1] = system: optic nerve and retina; test: Cellular morphology of optic nerve and retina sections after intraocular injection; settings: 24 hours
Protocol: (§1) A group of 55 male Wistar rats, average weight 300-350 g, were housed in controlled light and temperature with unlimited access to food and water. 20 animals were submitted to intraocular injection of 0.5 mM, 2 mM, 3.5 mM, 5 mM mildronate, 15 µl in physiological solution, to standardize experimental conditions (data not shown). A group of 5 animals were submitted to intraocular injection of 2% methylcellulose (MTC), 15 µl in physiological solution. MTC is a molecule capable of mechanically blocking the outflow of aqueous humor leading to ocular hypertension.
(§2) Thirty animals were randomly separated into 3 experimental groups: rats from first group received mildronate 5 mM; rats from second group received mildronate 2 mM; rats from third group received mildronate 2 mM + L-carnitine 0.6 mM, 15 µl in physiological solution; all controlateral eyes were used as control.
(§3) After local anesthesia with 0.4% oxybuprocaine eye drops (Novesina™, Novartis, Basel, Switzerland) and after induction with ether, animal were injected in the posterior chamber of the right eye with solutions described above.
24 hours after the intraocular injection, rats were given general anesthesia by intra-peritoneal injection of 500 pl sodium-thiopental solution (Farmotal™, Pharmacia & Upjohn, USA) in saline. They were then sacrificed by carotid bleeding and eyeballs were removed. […]

[2] = system: Caspase-3; test: Caspase-3 expression by immunohistochemistry (confirmed by western blot of retina extracts)
Protocol: as §1, §2, §3
(§4) 24 hours after the intraocular injection, rats were given general anesthesia by intra-peritoneal injection of 500 pl sodium-thiopental solution (Farmotal™, Pharmacia & Upjohn, USA) in saline. They were then sacrificed by carotid bleeding and eyeballs were removed.
Caspase-3 expression was detected with a rabbit polyclonal anti-caspase-3 antibody (Santa Cruz) (1:100), followed by a green fluorescent goat anti-rabbit IgG Alexa Fluor® (Molecular Probes) secondary antibody. […]
(§5) The observations were made under a fluorescence microscope and pictures taken by computerized image acquisition. […]

[3] = system: iNOS; test: iNOS expression by immunohistochemistry (confirmed by western blot of retina extracts)
Protocol: as §1, §2, §3, §4
iNOS expression was detected with a rabbit polyclonal anti-iNOS antibody (Santa Cruz) (1:50), followed by a green fluorescent goat anti-rabbit IgG Alexa Fluor® (Molecular Probes) secondary antibody. […]
as §5

[4] = system: RGCs and astrocytes cells of the optic nerve; test: TUNEL assay (DNA damage) on eye sections after intraocular injection; settings: 24 hours
Protocol: A group of 55 male Wistar rats, average weight 300-350 g, were housed in controlled light and temperature with unlimited access to food and water. 20 animals were submitted to intraocular injection of 0.5 mM, 2 mM, 3.5 mM, 5 mM mildronate, 15 µl in physiological solution, to standardize experimental conditions (data not shown). A group of 5 animals were submitted to intraocular injection of 2% methylcellulose (MTC), 15 µl in physiological solution. MTC is a molecule capable of mechanically blocking the outflow of aqueous humor leading to ocular hypertension. […]
The sections (thickness of 10 µm), left to dry at room temperature for 30 min, were subjected to the following treatments: rehydration through a descending alcohol series (100°, 95°, 75°; 2 min each); incubation with protease 20 µg/mL in Triton X-100 to 0.1% at 37°C for 30 min; washes with 1X PBS for 2 min; incubation with TUNEL reagent (In Situ Cell Death Detection Kit, AP/ROCHE), containing 1/10 in volume of terminal deoxynucleotidyl transferase and the remaining fraction of nucleotides labeled with a fluorescent chromophore, 10 µl per section at 37°C for 1h. […] The observations were made under a fluorescence microscope and pictures were taken by computerized image acquisition.

C[N+](C)(C)NCCC(=O)[O-] [mildronate, 3-(2,2,2-trimethylhydrazinium)propionate]
Cellular morphology of optic nerve ([1]; mildronate 5 mM, 15 µl intraocular injection, vs control eye): fibers do not run longitudinally, the papilla shows an excavation | Cellular morphology of retina ([1]; mildronate treated animals, intraocular injection): picnotic and/or vacuolated nuclei and fragmented chromatin | Caspase-3 expression ([2]; 2 mM mildronate, optic nerve and retina): mild decrease of positivity | Caspase-3 expression ([2]; 5 mM mildronate, astrocytes and retinal cells): high caspase-3 levels | Apoptosis of retinal ganglion cells and optic nerve astrocytes ([2]; summary statement, 24 hours after treatment): showed apoptosis | iNOS expression ([3]; 2 mM mildronate, optic nerve and retina, with respect to 5 mM mildronate-treated specimens): mild decrease of iNOS expression | iNOS expression ([3]; 5 mM mildronate, 24 hours, glial retinal cells and astrocytes of optic nerve, compared to control): high levels of iNOS | NO levels and iNOS immunolocalization ([3]; summary statement, dose not stated): increased NO levels and iNOS immunolocalization | DNA damage (TUNEL fluorescence due to DNA fragmentation) ([4]; mildronate 2 mM): slight positive fluorescence | DNA damage (TUNEL fluorescence due to DNA fragmentation) ([4]; mildronate 5 mM, RGCs and astrocytes of the optic nerve): strong fluorescence
